# What was measured:
# [1] = system: NLRP3 inflammasome (IL-1β production in THP-1 cells); test: IL-1β TR-FRET Assay (percentage of inhibition at 300 nM, 6 μM or 10 μM); assay type: cell-based, human; details: LPS priming, ATP activation; for inhibition at 0.3 µM / inhibition at 6 µM / inhibition at 10 µM: Homo sapiens; for inhibition at 0.3 µM: THP-1, 300 nM, read-out: IL-1β inhibitory rate at 300 nM (%); for inhibition at 6 µM: THP-1, 6 μM, read-out: IL-1β inhibitory rate at 6 μM (%); for inhibition at 10 µM: THP-1, 10 μM, read-out: IL-1β inhibitory rate at 10 μM (%)
# Outline: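 Percent inhibition of IL-1β used DMSO wells as 0% and 3 μM MCC-950 wells as full inhibition, with supernatant read by HTRF. Beforehand, IFN-γ-differentiated (25 ng/mL, 24 h), LPS-primed (50 ng/mL, 24 h) THP-1 cells received compound 30 min before inflammasome activation by 20 mM ATP for 2 h.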
# [2] = system: TNF-α (NF-κB pathway, THP-1 cells); test: TNF-α Assay (IC50); assay type: cell-based, human; details: Homo sapiens, 600 ng/mL LPS, 3 hours
# Outline: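 Supernatant TNF-α quantified by ELISA after 3 h stimulation with 600 ng/mL LPS at 37 °C, following 30 min compound preincubation. Cells: IFN-differentiated (25 ng/mL, 24 h) THP-1 macrophages, 40,000/well, serum-free. IC50 by sigmoidal fit of % inhibition, with TPCA-1 as 100% control.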
SMILES,inhibition at 0.3 µM [1] [%],IC50 [2] [µM],inhibition at 6 µM [1] [%],inhibition at 10 µM [1] [%],"IL-1β inhibitory rate at 300 nM (%) ([1]; 300 nM, 0.3 µM)"
"Cc1cc(C)c(-n2cc3c(=O)[nH]c(-c4cc(C)ncn4)nc3n2)c(O)c1 [Example 58, 2-(2-hydroxy-4,6-dimethylphenyl)-6-(6-methylpyrimidin-4-yl)-2,5-dihydro-4H-pyrazolo[3,4-d]pyrimidin-4-one]",100,> 30,–,–,–
"CCCOc1nc2nn(-c3c(C)cc(C)cc3O)cc2c(=O)[nH]1 [Example 4, 2-(2-hydroxy-4,6-dimethylphenyl)-6-propoxy-2,5-dihydro-4H-pyrazolo[3,4-d]pyrimidin-4-one]",92,> 30,–,–,–
"Cc1cc(C2CC2)cc(C)c1-n1cc2c(=O)[nH]c(-c3cnn(C)n3)nc2n1 [Example 258, 2-(4-cyclopropyl-2,6-dimethylphenyl)-6-(2-methyl-2H-1,2,3-triazol-4-yl)-2,5-dihydro-4H-pyrazolo[3,4-d]pyrimidin-4-one]",–,> 30,100,–,–
"CO[C@@H]1COCC[C@@H]1c1nc2nn(-c3c(C)cc(C4CC4)cc3C)cc2c(=O)[nH]1 (racemic) [Example 310, racemic mixture of 1,5-anhydro-3-[2-(4-cyclopropyl-2,6-dimethylphenyl)-4-oxo-4,5-dihydro-2H-pyrazolo[3,4-d]pyrimidin-6-yl]-2,3-dideoxy-4-O-methyl-D-erythro-pentitol and 1,5-anhydro-3-[2-(4-cyclopropyl-2,6-dimethylphenyl)-4-oxo-4,5-dihydro-2H-pyrazolo[3,4-d]pyrimidin-6-yl]-3,4-dideoxy-2-O-methyl-D-erythro-pentitol]",–,> 30,99,–,–
"CCOc1nc2nn(-c3c(F)cc(Br)cc3Br)cc2c(=O)[nH]1 [Example 128, 2-(2,4-dibromo-6-fluorophenyl)-6-ethoxy-2,5-dihydro-4H-pyrazolo[3,4-d]pyrimidin-4-one]",97,> 30,–,–,–
"Cc1cc(C)c(-n2cc3c(=O)[nH]c(C(C)(C)C)nc3n2)c(O)c1 [Example 71, 6-tert-butyl-2-(2-hydroxy-4,6-dimethylphenyl)-2,5-dihydro-4H-pyrazolo[3,4-d]pyrimidin-4-one]",96,1.69,–,–,–
"CCOc1nc2nn(-c3c(F)cc(C4CC4)cc3F)c(C)c2c(=O)[nH]1 [Example 123, 2-(4-cyclopropyl-2,6-difluorophenyl)-6-ethoxy-3-methyl-2,5-dihydro-4H-pyrazolo[3,4-d]pyrimidin-4-one]",95,> 30,–,–,–
"Cc1cc(C)c(-n2cc3c(=O)[nH]c(C4(C)CCCCO4)nc3n2)c(O)c1 (centres unmarked) [Example 90, 2-(2-hydroxy-4,6-dimethylphenyl)-6-(2-methyloxan-2-yl)-2,5-dihydro-4H-pyrazolo[3,4-d]pyrimidin-4-one]",85,> 30,–,–,–
"CCOc1nc2nn(-c3ccc(C4CC4)cc3O)c(C)c2c(=O)[nH]1 [Example 48, 2-(4-cyclopropyl-2-hydroxyphenyl)-6-ethoxy-3-methyl-2,5-dihydro-4H-pyrazolo[3,4-d]pyrimidin-4-one]",100,> 30,–,–,–
"CCOc1nc2nn(-c3c(F)cc(C4CC4)cc3C(F)(F)F)cc2c(=O)[nH]1 [Example 117, 2-[4-cyclopropyl-2-fluoro-6-(trifluoromethyl)phenyl]-6-ethoxy-2,5-dihydro-4H-pyrazolo[3,4-d]pyrimidin-4-one]",100,> 30,–,–,–
"Cc1cc(C2CC2)cc(C(F)F)c1-n1cc2c(=O)[nH]c(C3(F)CC3)nc2n1 [Example 319, 2-[4-cyclopropyl-2-(difluoromethyl)-6-methylphenyl]-6-(1-fluorocyclopropyl)-2,5-dihydro-4H-pyrazolo[3,4-d]pyrimidin-4-one]",–,> 30,100,–,–
"CCOc1nc2nn(-c3c(C)cc(C4CC4)cc3C)cc2c(=O)n1C [Example 141, 2-(4-cyclopropyl-2,6-dimethylphenyl)-6-ethoxy-5-methyl-2,5-dihydro-4H-pyrazolo[3,4-d]pyrimidin-4-one]",–,> 30,–,95,–
"COc1nc2nn(-c3c(C)cc(C4(F)CC4)cc3C)cc2c(=O)[nH]1 [Example 235, 2-[4-(1-fluorocyclopropyl)-2,6-dimethylphenyl]-6-methoxy-2,5-dihydro-4H-pyrazolo[3,4-d]pyrimidin-4-one]",–,> 30,105,–,–
"CCOc1nc2nn(-c3c(C)cc(OC(F)F)nc3C)cc2c(=O)[nH]1 [Example 226, 2-[6-(difluoromethoxy)-2,4-dimethylpyridin-3-yl]-6-ethoxy-2,5-dihydro-4H-pyrazolo[3,4-d]pyrimidin-4-one]",–,> 30,106,–,–
"CCOc1nc2nn(-c3c(C)cc(CC(F)(F)F)cc3F)cc2c(=O)[nH]1 [Example 156, 6-ethoxy-2-[2-fluoro-6-methyl-4-(2,2,2-trifluoroethyl)phenyl]-2,5-dihydro-4H-pyrazolo[3,4-d]pyrimidin-4-one]",–,> 30,–,97,–
"Cc1ccc(-n2cc3c(=O)[nH]c(OC4CCC4)nc3n2)c(C)c1 [Example 87, 6-(cyclobutyloxy)-2-(2,4-dimethylphenyl)-2,5-dihydro-4H-pyrazolo[3,4-d]pyrimidin-4-one]",97,> 30,–,–,–
"Cc1cc(C2CC2)cc(C)c1-n1cc2c(=O)[nH]c(-c3cc4n(n3)CCOC4)nc2n1 [Example 218, 2-(4-cyclopropyl-2,6-dimethylphenyl)-6-(6,7-dihydro-4H-pyrazolo[5,1-c][1,4]oxazin-2-yl)-2,5-dihydro-4H-pyrazolo[3,4-d]pyrimidin-4-one]",106,> 30,–,–,–
"COc1nc2nn(-c3c(C)cc(Br)cc3C(F)F)cc2c(=O)[nH]1 [Example 214, 2-[4-bromo-2-(difluoromethyl)-6-methylphenyl]-6-methoxy-2,5-dihydro-4H-pyrazolo[3,4-d]pyrimidin-4-one]",107,> 30,–,–,–
"COc1nc2nn(-c3c(C)cc(Br)cc3C)cc2c(=O)[nH]1 [Example 138, 2-(4-bromo-2,6-dimethylphenyl)-6-methoxy-2,5-dihydro-4H-pyrazolo[3,4-d]pyrimidin-4-one]",93,> 30,–,–,–
"CCOc1nc2nn(-c3c(C)cc(C4CC4)cc3Br)cc2c(=O)[nH]1 [Example 151, 2-(2-bromo-4-cyclopropyl-6-methylphenyl)-6-ethoxy-2,5-dihydro-4H-pyrazolo[3,4-d]pyrimidin-4-one]",98,> 30,–,–,–
"Cn1ccc(-c2nc3nn(-c4c(F)cc(C5CC5)cc4C(F)F)cc3c(=O)[nH]2)n1 [Example 299, 2-[4-cyclopropyl-2-(difluoromethyl)-6-fluorophenyl]-6-(1-methyl-1H-pyrazol-3-yl)-2,5-dihydro-4H-pyrazolo[3,4-d]pyrimidin-4-one]",–,> 30,99,–,–
"Cc1cc(C2CC2)cc(C)c1-n1cc2c(=O)[nH]c(C3CCCO3)nc2n1 (single isomer, unassigned) [Example 227, 2-(4-cyclopropyl-2,6-dimethylphenyl)-6-[(2R)-oxolan-2-yl]-2,5-dihydro-4H-pyrazolo[3,4-d]pyrimidin-4-one or 2-(4-cyclopropyl-2,6-dimethylphenyl)-6-[(2S)-oxolan-2-yl]-2,5-dihydro-4H-pyrazolo[3,4-d]pyrimidin-4-one (HPLC Method A: tR1)]",–,> 30,–,–,100
